# Patent publication US8575357B2, “Substituted (thiazolyl-carbonyl)imidazolidinones and use thereof” (AiCuris GmbH & Co. KG, priority 2009, dated 2013)
# Like-named read-outs stand apart in the source and are kept apart here.
# How the values were obtained:
# [1] = biological target: T1, reverse transcriptase (Human immunodeficiency virus type 1 group M subtype B, UniProt P04585); experiment: Biochemical reverse transcriptase assay (Reverse Transcriptase Assay, colorimetric, Roche)
# T1 construct: negative control (mixture without reverse transcriptase); purchased Roche Diagnostics GmbH, Mannheim, Germany
# Procedure: The “Reverse Transcriptase Assay, colorimetric” (Roche Diagnostics GmbH, Mannheim, Germany) is used in accordance with the manufacturer's information. The test substances are dissolved in DMSO and are used in the test diluted in 5-fold steps (final DMSO concentration 1%). The resulting values of the photometric evaluation (405/492 nm) are less than 0.1 for the negative control (mixture without reverse transcriptase) and are in the region of 1.5 for the positive control (mixture without test substance). The IC50 values of the test substances are determined as the concentration of the test substance dilution at which the measured optical density is 50% of the positive control.
# [2] = test system: HIV-1LAI; experiment: H9 assay with wild-type HIV-1 (HIV-1LAI supernatant infection, AlamarBlue); assay type: cell-based; conditions: Human immunodeficiency virus 1, 120 h, H9 cells, 10% FCS, 5 days
# Procedure: For the mixture for a 96-well MTP, 3 million PBLs are pelleted, suspended in 1 ml of RPMI 1640 medium/10% FCS and incubated together with a suitable amount of HIV-1LAI (NIH AIDS Research & Reference Reagent Program, Germantown, USA) at 37° C. for 2 hours (pellet infection). Unadsorbed viruses are subsequently washed out with PBS, and the infected cells are pelleted again and suspended in 18 ml of RPMI 1640 medium/10% FCS/interleukin-2 (40 U/ml). 180 μl thereof are pipetted into each well of a white 96-well MTP with 20 μl of test substance in suitable dilution. Alternatively, after preparation of the substance dilutions in the MTP, the HIV is pipetted in together with the cells and is not washed out again (supernatant infection). In order to avoid edge effects, the wells at the edge of the MTP are not used for substance dilutions. The second vertical row of the MTP contains only infected cells (virus control) and the eleventh vertical row only uninfected cells (cell control), in each case in RPMI 1640 medium/10% FCS/interleukin-2 (40 U/ml). The other wells of the MTP contain the compounds of the invention in various concentrations starting from the third vertical row, from which the test substances are diluted in 3-fold steps up to the tenth vertical row 3^7-fold. The test substances are dissolved in DMSO, whereby the final DMSO concentration in the test mixture is 1%. The test mixtures are incubated at 37° C./5% CO2. After 5 and 7 days, 50 μl of cell-free supernatant are removed from each well to determine the amount of p24 present by means of a p24 ELISA (HIV-1 p24^CA Antigen Capture Assay Kit, NCI-Frederick Cancer Research and Development Center, Frederick, USA). From the resulting values of the photometric evaluation (450/620 nm) the EC50 values of the test substances are determined as the concentration at which the amount of p24 is 50% of the untreated infected cells.
# Alternatively, H9 cells (ATCC, Wesel, Germany) are employed instead of PBLs for testing the test substances. H9 cells are incubated in RPMI 1640 medium with 2% or 10% FCS as a HIV-1LAI supernatant infection at 37° C./5% CO2, (20 μl of substance dilution and 80 μl of cells/virus per well) in accordance with the pattern described above for 5 days. Subsequently, 10 μl of AlamarBlue (Invitrogen, Karlsruhe, Germany) are added to each well, and the MTPs are incubated at 37° C. for 3 hours before the fluorimetric evaluation takes place (544/590 nm). The resulting values are about 40 000 for the untreated uninfected cells and about 7000 for the untreated infected cells. In the low concentration range, the EC50 values of the test substances are determined as the concentration at which the fluorescence is 50% of the untreated uninfected cells (in each case subtracting the values of the untreated infected cells). In addition, in the high concentration range, the CC50 values of the test substances are determined as the concentration at which the fluorescence is 50% of the untreated uninfected cells (in each case subtracting the values of the untreated infected cells).
# [3] = test system: HIV-1NL4-3 reporter virus, wild-type; experiment: Light assay with wild-type HI reporter virus in MT4 7F2 cells; assay type: cell-based; conditions: Human immunodeficiency virus 1, 120 h, read-out: EC50 (nM) MT4 7F2 cells HIV-1NL4-M3 wt 2% FCS
# Procedure: (§1) For the mixture for a 96-well MTP, 3 million MT4 7F2 cells are pelleted, suspended in 1 ml of RPMI 1640 medium without phenol red (Invitrogen, Karlsruhe, Germany)/10% FCS/10% AIM-V (Invitrogen, Karlsruhe, Germany) and incubated together with a suitable amount of the corresponding HIV-1NL4-3 reporter virus at 37° C. for 2 hours (pellet infection). Unadsorbed viruses are subsequently washed out with PBS, and the infected cells are pelleted again and suspended in 8 ml of RPMI 1640 medium without phenol red/2% or 10% FCS/10% AIM-V. 80 μl thereof are pipetted into each well of a white 96-well MTP with 20 μl of test substance in suitable dilution. To avoid edge effects, the wells on the edge of the MTP are not used for substance dilutions. The second vertical row of the MTP contains only infected cells (virus control) and the eleventh vertical row only uninfected cells (cell control), in each case in RPMI 1640 medium without phenol red/2% or 10% FCS/10% AIM-V. The other wells of the MTP contain the compounds of the invention in various concentrations starting from the third vertical row, from which the test substances are diluted in 3-fold steps up to the tenth vertical row 3^7-fold. The test substances are dissolved in DMSO, whereby the final DMSO concentration in the test mixture is 1%. The test mixtures are incubated at 37° C./5% CO2 for five days and, after the addition of 15 μl of Lu164 substrate (5 mg/ml coelenterazine dissolved in 30 μM glutathione/DMSO, 100 mM NaCl, 1M MES, 100 mM glutathione), evaluated by luminometry. The resulting values are in the region of 1 000 000 RLUs (relative light units) for the virus control and 300 to 400 RLUs for the cell control. The EC50 values of the test substances are determined as the concentration at which the virus replication measured in RLUs is 50% of the untreated infected cells.
# [4] = test system: HIV-1NL4-3 reporter virus, reverse transcriptase mutations K103N-Y181C; experiment: Light assay with inhibitor-resistant HI reporter virus in MT4 7F2 cells; assay type: cell-based; conditions: Human immunodeficiency virus 1, 120 h, read-out: EC50 (nM) MT4 7F2 cells HIV-1NL4-M3 K103N-Y181C 2% FCS
# Procedure: as §1
# [5] = colorimetric RT assay, final DMSO 1%, read-out: IC50 (nM) RT assay
SMILES,"IC50 [1, 5]",EC50 [2],EC50 [3],EC50 [4],IC50 [1]
"O=C1CN(C(=O)c2nc(-c3cccc(Cl)c3)c(-c3cc(F)cc(Cl)c3)s2)CN1 [Example 3, 1-{[5-(3-Chloro-5-fluorophenyl)-4-(3-chlorophenyl)-1,3-thiazole-2-yl]carbonyl}imidazolidin-4-one]",20 nM,12 nM,0.6 nM,60 nM,
N#Cc1cc(F)cc(-c2sc(C(=O)N3CNC(=O)C3)nc2-c2ccc(F)c(Cl)c2)c1 [Example 11],,4 nM,5 nM,69 nM,13 nM
"O=C1CN(C(=O)c2nc(-c3cccc(Cl)c3)c(-c3cccc(Cl)c3)s2)CN1 [Example 20, 1-{[4,5-Bis(3-chlorophenyl)-1,3-thiazole-2-yl]carbonyl}imidazolidin-4-one]",47 nM,7 nM,1 nM,149 nM,
